{"source": "patent US12458621B1", "about": "“Application of genipin beta-methyl derivative gen-17 in preparation of drug for prevention and treatment of acute severe pneumonia” (KUNMING MEDICAL UNIVERSITY, priority 2024, dated 2025)", "assay_type_in_all_cases": "in vivo, Kunming mice", "key": {"TNF-α [1]": {"test_system": "TNF-α", "assay": "TNF-α content in BALF by ELISA", "protocol": "(§1) A total of 144 SPF-grade healthy Kunming mice, aged 5-7 weeks and weighing 18-22 g, are weighed and randomly allocated into six experimental groups: control group (NS), model group (LPS), dexamethasone group (DEX, […] per kilogram abbreviated as mg/kg), genipin beta-methyl derivative low-dose group (12.5 mg/kg), genipin beta-methyl derivative medium-dose group (25 mg/kg), and genipin beta-methyl derivative high-dose group (50 mg/kg), 24 animals per group, in which 12 animals are used to take lung tissue for the detection of other indicators, and another 12 animals are used to collect BALF.\n(§2) All mice are gavaged with a same volume of 0.9% normal saline once a day in the NS group and the LPS group, DEX solution (0.39 mg/kg) is gavaged once a day in the DEX group, low-dose Gen-17 solution (12.5 mg/kg) is gavaged once a day in the medium-dose Gen-17 group, medium-dose Gen-17 solution (25 mg/kg) is gavaged once a day in the high-dose Gen-17 group, and high-dose Gen-17 solution (50 mg/kg) is gavaged once a day in the high-dose Gen-17 group. The dosage is converted according to the weight of the mice, and the gavage volume is 20 milliliters per kilogram (mL/kg), and the gavage is continued for 3 days. One hour after the gavage on the third day, the ALI model is established by tracheal instillation of LPS solution. […]"}, "IKKα/β": {"test_system": "IKKα/β", "assay": "IKKα/β mRNA in lung tissue by qRT-PCR", "details": "Gen-17 (12.5, 25, 50 mg/kg gavage) compared with LPS group (P<0.001)", "protocol": "as §1, with “BALF. […]” for “BALF.”\n(§3) Samples are collected 24 hours after the animal model is established. […] Lung tissues are collected and the whole lung wet weight is measured. […] After tidying, the lungs are photographed, excess tissues such as the trachea are cleared away, and the wet weight of the whole lung is measured to calculate the lung index. • (3) The upper lobe of the left lung is fixed in 4% neutral paraformaldehyde, fixed for 24 hours, paraffin-embedded and sectioned for HE staining. • (4) The remaining lung tissues are put into centrifugal tubes separately, quickly frozen in liquid nitrogen, and then stored at −80° C. after the experiment, which is used for the detection of MDA, SOD, western blotting (WB) and reverse transcription polymerase chain reaction (RT-PCR). […]"}, "iNOS": {"test_system": "iNOS", "assay": "iNOS mRNA in lung tissue by qRT-PCR", "details": "Gen-17 (12.5, 25, 50 mg/kg gavage) compared with LPS group (P<0.001)", "protocol": "as §1, with “BALF. […]” for “BALF.”\nas §3"}, "LPS-induced ALI mice": {"test_system": "LPS-induced ALI mice", "assay": "Total cell count in BALF", "protocol": "as §1\nAll mice are gavaged with a same volume of 0.9% normal saline once a day in the NS group and the LPS group, DEX solution (0.39 mg/kg) is gavaged once a day in the DEX group, low-dose Gen-17 solution (12.5 mg/kg) is gavaged once a day in the medium-dose Gen-17 group, medium-dose Gen-17 solution (25 mg/kg) is gavaged once a day in the high-dose Gen-17 group, and high-dose Gen-17 solution (50 mg/kg) is gavaged once a day in the high-dose Gen-17 group. The dosage is converted according to the weight of the mice, and the gavage volume is 20 milliliters per kilogram (mL/kg), and the gavage is continued for 3 days. One hour after the gavage on the third day, the ALI model is established by tracheal instillation of LPS solution. The specific experimental procedures are as follows. • (1) Before the operation, the mice are anesthetized by intraperitoneal injection of 1% sodium pentobarbital (30 mg/kg) according to their body weight. • (2) Limbs of anesthetized mice are fixed with rubber bands, teeth are wired with thin threads, and neck skin is disinfected with 75% alcohol. • (3) A subcutaneous tissue is separated along a longitudinal incision in a middle of the mouse neck until a cartilage ring appeared in an exposed trachea. • (4) A microinjector is inserted into the trachea in parallel towards a proximal end for about 1 centimeter (cm). Sterile NS is slowly dripped into the trachea of the control group, and LPS is dripped into the trachea of the other groups. • (5) After pulling out the microinjector, the mice are upright immediately, rotated and shaken evenly for 2 minutes (min), then the neck wound is sutured, and the state of the mice is observed. After the mice are awake, they are raised as usual. 2.3 Treatment of Experimental Animals and Collection of Lung Tissue Specimens\nBALF is collected 24 hours after the establishment of the animal model. First, the remaining 12 mice in each group are weighed, and then BALF is extracted. The extracted BALF is used for total cell count, total protein content determination and enzyme-linked immunosorbent assay (ELISA) determination of IL-1B, IL-6 and TNF-α in BALF. The specific experimental procedures are as follows. • (1) After weighing, the mice are anesthetized by intraperitoneal injection of pentobarbital sodium according to their weight; • (2) When the tail root, hind limbs, eyelash reflex and other activities of mice disappear, and the mice breathe slowly and evenly, the limbs and teeth of mice are fixed, the neck skin of mice is disinfected with 75% alcohol, and the neck tissue is opened longitudinally, so that the tracheal cartilage ring is exposed. Tracheal puncture is performed with a 19G trocar catheter, the needle is inserted for about 1 cm, the needle core is pulled out, a 1 ml syringe is connected, and precooled normal saline (0.8 mL/time, repeat 2 times) is slowly injected. […]"}, "TNF-α [2]": {"test_system": "TNF-α", "assay": "TNF-α mRNA in lung tissue by qRT-PCR", "protocol": "as §1, with “BALF. […]” for “BALF.”\nas §3"}, "IL-1β": {"test_system": "IL-1β", "assay": "IL-1β content in BALF by ELISA", "protocol": "as §1, §2"}, "HO-1": {"test_system": "HO-1", "assay": "HO-1 gene expression in lung tissue by qRT-PCR", "protocol": "as §1, with “BALF. […]” for “BALF.”\nas §3"}, "[3]": {"test_system": "p38 phosphorylated protein", "assay": "p38 phosphorylated protein in lung tissue by WB", "protocol": "as §1\nas §2, with “days.” for “days. One hour after the gavage on the third day, the ALI model is established by tracheal instillation of LPS solution.”\nas §3\nThe lung tissue is taken out from −80° C., and its weight is accurately measured. […]"}, "[4]": {"details": "low-dose Gen-17 12.5 mg/kg gavage, compared with DEX group (P<0.01)"}}}
{"smiles": "COC(=O)C1=CO[C@@H](OC)[C@@H]2C(COC(=O)c3cccc(Br)c3)=CC[C@H]12", "note": "[Gen-17, genipin beta-methyl derivative]", "values": [{"measurement": "reduction of the TNF-α level in BALF", "setting": "TNF-α [1]; Gen-17 compared with DEX group (P>0.05)", "result": "no statistically significant difference"}, {"measurement": "content of TNF-α in BALF", "setting": "TNF-α [1]; Gen-17 groups (12.5, 25, 50 mg/kg gavage) compared with LPS group", "result": "reduce the contents of inflammatory cytokines"}, {"measurement": "mRNA expression of IKKα/β in lung tissue", "setting": "IKKα/β", "result": "significantly reduce the expression"}, {"measurement": "mRNA expression of iNOS in lung tissue", "setting": "iNOS", "result": "significantly reduce the expression"}, {"measurement": "total cell counts in BALF", "setting": "LPS-induced ALI mice; Gen-17 groups (12.5, 25, 50 mg/kg gavage) compared with LPS group (P<0.001)", "result": "decreased significantly"}, {"measurement": "total cell counts in BALF", "setting": "LPS-induced ALI mice; [4]", "result": "significantly increased"}, {"measurement": "total cell counts in BALF", "setting": "LPS-induced ALI mice; low-dose Gen-17 12.5 mg/kg gavage, compared with NS group (P<0.001)", "result": "significantly increased"}, {"measurement": "total cell counts in BALF", "setting": "LPS-induced ALI mice; middle-dose Gen-17 25 mg/kg gavage, compared with DEX group (P<0.01)", "result": "significantly increased"}, {"measurement": "total cell counts in BALF", "setting": "LPS-induced ALI mice; middle-dose Gen-17 25 mg/kg gavage, compared with NS group (P<0.001)", "result": "significantly increased"}, {"measurement": "mRNA expression of TNF-α in lung tissue", "setting": "TNF-α [2]; Gen-17 (12.5, 25, 50 mg/kg gavage) compared with LPS group (P<0.001)", "result": "significantly reduce the expression"}, {"measurement": "mRNA expression of TNF-α in lung tissue", "setting": "TNF-α [2]; low-dose Gen-17 12.5 mg/kg gavage, compared with DEX group (P<0.001)", "result": "statistical significance"}, {"measurement": "content of IL-1β in BALF", "setting": "IL-1β; Gen-17 groups (12.5, 25, 50 mg/kg gavage) compared with LPS group (P<0.05)", "result": "reduce the contents of inflammatory cytokines"}, {"measurement": "IL-1β level in BALF", "setting": "IL-1β; [4]", "result": "statistically significant reduction"}, {"measurement": "expression of HO-1 gene in lung tissue", "setting": "HO-1; Gen-17 compared with DEX group (P<0.001)", "result": "statistically significant in upregulating the expression of HO-1 gene"}, {"measurement": "expression of HO-1 gene in lung tissue", "setting": "HO-1; Gen-17 group compared with NS group", "result": "significantly decreased (P<0.001)"}, {"measurement": "expression of phosphorylated protein p38 in lung tissue", "setting": "[3]; Gen-17 groups (12.5, 25, 50 mg/kg gavage) compared with DEX group (P>0.05)", "result": "no statistically significant change"}, {"measurement": "expression of p38 phosphorylated protein in lung tissue", "setting": "[3]; after drug treatment, compared with LPS group", "result": "down-regulate the expression of p38, ERK and JNK proteins"}, {"measurement": "expression of p38 phosphorylated protein in lung tissue, statistical significance of decrease", "setting": "[3]; low-dose Gen-17 12.5 mg/kg gavage, compared with LPS group, excepted from significance (P<0.05)", "result": "except for the low-dose Gen-17 group"}]}
